pIC50, pKi: −log10 of the molar value.
Assays:
[1] = molecular target: DCN1-like protein 1/NEDD8-conjugating enzyme Ubc12 (Homo sapiens, UniProt Q96GG9); experiment: Inhibition of GST-tagged DCN1 (unknown origin)/acetylated-biotin tagged UBC12 (unknown origin) protein-protein interaction incubated for 30 mins by HTRF assay
[2] = Hepatotoxicity in human L02 cells assessed as reduction in cell viability by MTT assay
[3] = molecular target: DCN1-like protein 1 (Homo sapiens, UniProt Q96GG9); experiment: Inhibition of DCN1 (unknown origin) assessed as inhibition constant
Chain of DCN1-like protein 1 (Q96GG9 whole entry): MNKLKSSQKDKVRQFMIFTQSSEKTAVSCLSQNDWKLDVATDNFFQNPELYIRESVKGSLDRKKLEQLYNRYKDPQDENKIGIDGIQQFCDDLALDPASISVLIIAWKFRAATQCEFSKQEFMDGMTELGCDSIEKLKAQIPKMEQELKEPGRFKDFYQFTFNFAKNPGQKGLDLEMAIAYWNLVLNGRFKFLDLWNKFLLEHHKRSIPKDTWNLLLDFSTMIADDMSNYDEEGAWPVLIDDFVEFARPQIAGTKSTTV

[4] = Inhibition of GST-tagged DCN5 (unknown origin)/acetylated-biotin tagged UBC12 (unknown origin) protein-protein interaction assessed as inhibition constant incubated for 30 mins by HTRF assay
[5] = Inhibition of GST-tagged DCN3 (unknown origin)/acetylated-biotin tagged UBC12 (unknown origin) protein-protein interaction assessed as inhibition constant incubated for 30 mins by HTRF assay
[6] = Inhibition of GST-tagged DCN2 (unknown origin)/acetylated-biotin tagged UBC12 (unknown origin) protein-protein interaction assessed as inhibition constant incubated for 30 mins by HTRF assay
[7] = Inhibition of GST-tagged DCN4 (unknown origin)/acetylated-biotin tagged UBC12 (unknown origin) protein-protein interaction assessed as inhibition constant incubated for 30 mins by HTRF assay

Chain of DCN1-like protein 1/NEDD8-conjugating enzyme Ubc12 (Q96GG9 whole entry): as above
Chain of DCN1-like protein 1/NEDD8-conjugating enzyme Ubc12 (P61081 whole entry, further chain): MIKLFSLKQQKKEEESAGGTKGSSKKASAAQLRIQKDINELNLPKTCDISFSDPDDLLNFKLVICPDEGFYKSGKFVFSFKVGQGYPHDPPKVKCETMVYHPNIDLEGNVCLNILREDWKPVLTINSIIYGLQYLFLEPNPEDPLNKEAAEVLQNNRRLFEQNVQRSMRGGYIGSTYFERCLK

| pIC50 [1] | Compound | also measured |
| --- | --- | --- |
| < 4.70 | C#CCNC(=O)CCn1c(-c2ccc(Cl)cc2)n[nH]c1=S |  |
| 5.12 | O=C(CCn1c(-c2ccc(Cl)cc2)n[nH]c1=O)Nc1cccc(C(F)(F)F)c1 |  |
| < 4.70 | COc1ccc(CNC(=O)CCn2c(-c3ccc(OC)cc3)n[nH]c2=S)cc1 |  |
| 8.06 | CC(C)(C)c1ccc(NC(=O)CCn2c(-c3ccc(Cl)cc3)n[nH]c2=S)cc1 | IC50 [2]: > 100 mg/L |
| 4.80 | O=C(CCn1cnnc1-c1ccc(Cl)cc1)Nc1cccc(C(F)(F)F)c1 |  |
| 6.89 | O=C(CCn1c(-c2ccc(Cl)cc2)n[nH]c1=S)Nc1ccc(F)cc1 |  |
| 8.27 | O=C(CCn1c(-c2ccc(Cl)cc2Br)n[nH]c1=S)Nc1cccc(C(F)(F)F)c1 |  |
| 6.66 | O=C(CCn1c(-c2ccncc2)n[nH]c1=S)Nc1cccc(C(F)(F)F)c1 |  |
| 7.59 | O=C(CCn1c(-c2ccc(Cl)cc2)n[nH]c1=S)Nc1ccc(Br)cc1 |  |
| 5.63 | COc1ccc(-c2n[nH]c(=S)n2CCC(=O)Nc2cc(C(C)(C)C)ccc2O)cc1 |  |
| 7.56 | O=C(Cn1c(-c2ccc(Cl)cc2)n[nH]c1=S)Nc1cccc(C(F)(F)F)c1 |  |
| < 4.70 | O=C(CCn1c(-c2ccc(Cl)cc2)n[nH]c1=S)Nc1ccc(O)cc1 |  |
| 7.89 | CC(C)c1ccc(NC(=O)CCn2c(-c3ccc(Cl)cc3)n[nH]c2=S)cc1 | IC50 [2]: > 100 mg/L |
| < 4.70 | C#CCNC(=O)CCn1c(-c2ccc(OC)cc2)n[nH]c1=S |  |
| < 4.70 | COc1ccc(CNC(=O)CCn2c(-c3ccc(Cl)cc3)n[nH]c2=S)cc1 |  |
| 6.19 | Cc1ccc(O)c(NC(=O)CCn2c(-c3ccc(Cl)cc3)n[nH]c2=S)c1 |  |

| pIC50 [1] | Compound | also measured |
| --- | --- | --- |
| 7.72 | O=C(CCn1c(-c2ccc(F)cc2)n[nH]c1=S)Nc1cccc(C(F)(F)F)c1 | IC50 [2]: > 100 mg/L |
| 7.11 | COc1cccc(NC(=O)CCn2c(-c3ccc(Cl)cc3)n[nH]c2=S)c1 |  |
| 7.16 | O=C(CCn1c(-c2ccc(Cl)cc2)n[nH]c1=S)Nc1ccc(Cl)cc1 |  |
| 6.26 | O=C(CCn1c(-c2ccc(Cl)cc2)n[nH]c1=S)Nc1ccccc1 |  |
| 7.00 | O=C(CCn1c(-c2ccc(O)cc2)n[nH]c1=S)Nc1ccccc1C(F)(F)F |  |
| 7.65 | O=C(CCn1c(-c2ccc(Cl)cc2)n[nH]c1=S)Nc1cccc(Br)c1 |  |
| 5.79 | CSc1nnc(-c2ccc(Cl)cc2)n1CCC(=O)Nc1cccc(C(F)(F)F)c1 |  |
| 5.39 | COc1ccc(CSc2nnc(-c3ccc(Cl)cc3)n2CCC(=O)Nc2cccc(C(F)(F)F)c2)cc1 |  |
| 6.48 | O=C(CCn1c(-c2ccc(Cl)cc2)n[nH]c1=S)Nc1cc(-c2ccccc2)ccc1O |  |
| 7.37 | O=C(CCn1c(-c2ccc(O)cc2)n[nH]c1=S)NCc1cccc(C(F)(F)F)c1 |  |
| 8.03 | O=C(CCn1c(-c2c[nH]c3ccccc23)n[nH]c1=S)Nc1cccc(C(F)(F)F)c1 | IC50 [2]: > 100 mg/L |
| 5.66 | CCSc1nnc(-c2ccc(Cl)cc2)n1CCC(=O)Nc1cccc(C(F)(F)F)c1 |  |
| < 4.70 | O=C(CSc1nnc(-c2ccc(Cl)cc2)n1CCC(=O)Nc1cccc(C(F)(F)F)c1)NC(=O)Nc1ccccc1 |  |
| 7.60 | O=C(CCn1c(-c2ccc(Br)cc2)n[nH]c1=S)Nc1cccc(C(F)(F)F)c1 |  |
| 6.68 | COc1ccc(-c2n[nH]c(=S)n2CCC(=O)Nc2ccc(Br)cc2O)cc1 |  |
| < 4.70 | COc1ccc(-c2n[nH]c(=S)n2CCC(=O)NCc2ccoc2)cc1 |  |

Further lines, the compound ahead of its results:

| Compound | pIC50 [1] | also measured |
| --- | --- | --- |
| N#Cc1cc(NC(=O)CCn2c(-c3ccc(Cl)cc3)n[nH]c2=S)n[nH]1 | < 4.70 |  |
| O=C(CCn1c(-c2ccc(Cl)cc2)n[nH]c1=S)NCCc1c[nH]c2ccccc12 | 5.66 |  |
| Cc1ccc(NC(=O)CCn2c(-c3ccc(Cl)cc3)n[nH]c2=S)cc1 | 7.30 |  |
| COc1ccc(-c2n[nH]c(=S)n2CCC(=O)Nc2ccc(OC)cc2OC)cc1 | 6.08 |  |
| O=C(CCCn1c(-c2ccc(Cl)cc2)n[nH]c1=S)Nc1cccc(C(F)(F)F)c1 | 7.35 |  |
| C=C(CN(C)C)C(=O)NC[C@@H](NC(=O)[C@H](Cc1nc2ccc(C(C)C)cc2s1)NC(=O)CC)C1CCCCC1 |  | pKi [3]: > 9.00 |
| CCCCc1ccc(NC(=O)CCn2c(-c3ccc(Cl)cc3)n[nH]c2=S)cc1 | 7.91 | IC50 [2]: > 100 mg/L |
| O=C(CCn1c(-c2ccccc2)n[nH]c1=S)Nc1cccc(C(F)(F)F)c1 | 7.82 | IC50 [2]: > 100 mg/L |
| Cc1cccc2[nH]c(CSc3nnc(-c4ccc(Cl)cc4)n3CCC(=O)Nc3cccc(C(F)(F)F)c3)nc12 | 5.15 |  |
| COc1ccc(-c2n[nH]c(=S)n2CCC(=O)Nc2cc(C#N)[nH]n2)cc1 | < 4.70 |  |
| COc1ccc(-c2n[nH]c(=S)n2CCC(=O)Nc2cc(-c3ccccc3)ccc2O)cc1 | 5.95 |  |
| Cc1ccc(-c2n[nH]c(=S)n2CCC(=O)Nc2cccc(C(F)(F)F)c2)cc1 | 8.03 | IC50 [2]: > 100 mg/L |
| O=C(CCn1c(-c2cccc(Cl)c2)n[nH]c1=S)Nc1cccc(C(F)(F)F)c1 | 7.70 | IC50 [2]: > 100 mg/L |
| CC(C)c1cccc(NC(=O)CCn2c(-c3ccc(Cl)cc3)n[nH]c2=S)c1 | 7.81 | IC50 [2]: > 100 mg/L |
| C#CCSc1nc(Sc2nccs2)c(C#N)c(-c2ccc(C)cc2)n1 |  | pKi [4]: 5.67; pKi [5]: 6.23; pKi [6]: 7.18; pKi [7]: 6.09 |
| COc1ccc(-c2n[nH]c(=S)n2CCC(=O)Nc2cc(C)ccc2O)cc1 | 5.84 |  |
| O=C(CCn1c(-c2ccccc2Cl)n[nH]c1=S)Nc1cccc(C(F)(F)F)c1 | 7.54 |  |
| COc1cc(-c2nc(SCc3ccc(Cl)cc3)nc(Sc3nnnn3C)c2C#N)cc(OC)c1OC |  | pKi [4]: < 4.70; pKi [5]: 6.41; pKi [6]: 7.73; pKi [7]: < 4.70 |
| COc1ccc(NC(=O)CCn2c(-c3ccc(Cl)cc3)n[nH]c2=S)cc1 | 7.04 |  |
| COc1ccc(-c2n[nH]c(=S)n2CCC(=O)NCCc2c[nH]c3ccccc23)cc1 | 5.64 |  |
| O=C(CCn1c(SCC(=O)Nc2ccccc2)nnc1-c1ccc(Cl)cc1)Nc1cccc(C(F)(F)F)c1 | < 4.70 |  |
| COc1ccc(-c2n[nH]c(=S)n2CCC(=O)Nc2cccc(C(F)(F)F)c2)cc1 | 7.85 | IC50 [2]: > 100 mg/L |
| O=C(CCn1c(-c2ccc(Cl)cc2)n[nH]c1=S)NCc1ccoc1 | < 4.70 |  |
| O=C(CCn1c(-c2ccc(O)cc2)n[nH]c1=S)Nc1ccc(C(F)(F)F)cc1 | 7.98 | IC50 [2]: > 100 mg/L |
| COc1ccccc1NC(=O)CCn1c(-c2ccc(Cl)cc2)n[nH]c1=S | 6.05 |  |
| CC(C)(C)c1ccc(-c2n[nH]c(=S)n2CCC(=O)Nc2cccc(C(F)(F)F)c2)cc1 | 8.11 |  |
| CC(C)(C)c1ccc(O)c(NC(=O)CCn2c(-c3ccc(Cl)cc3)n[nH]c2=S)c1 | 6.71 |  |
| O=C(CCn1c(-c2ccc([N+](=O)[O-])cc2)n[nH]c1=S)Nc1cccc(C(F)(F)F)c1 | 7.34 |  |
